{"source": "PubChem BioAssay AID2082", "about": "(Sanford-Burnham Center for Chemical Genomics, 2009)", "note": "pIC50: −log10 of the molar value."}
{"target": "Tyrosine-protein phosphatase non-receptor type 7 (Homo sapiens) (UniProt P35236)", "sequence (P35236 whole entry, looked up)": "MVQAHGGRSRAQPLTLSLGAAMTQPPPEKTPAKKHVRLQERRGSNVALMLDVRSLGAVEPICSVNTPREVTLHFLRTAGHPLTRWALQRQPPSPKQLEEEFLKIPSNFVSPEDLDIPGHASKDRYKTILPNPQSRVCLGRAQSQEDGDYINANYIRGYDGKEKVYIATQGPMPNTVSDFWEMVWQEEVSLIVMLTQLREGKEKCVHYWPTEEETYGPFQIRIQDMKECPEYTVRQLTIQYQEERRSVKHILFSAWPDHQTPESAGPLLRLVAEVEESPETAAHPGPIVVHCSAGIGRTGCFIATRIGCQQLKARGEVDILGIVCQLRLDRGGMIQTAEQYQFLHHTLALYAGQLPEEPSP", "experiment": "HePTP phosphatase inhibition by analogues, SAR follow-up, selectivity assay for VHR1 inhibitor project, biochemical, DiFMUP fluorescence (AID 2082)", "settings": "recombinant HePTP"}
{"molecule": "O=C1/C(=C/c2cn(-c3ccccc3)nc2-c2ccc(OCc3ccc(Cl)cc3)cc2)SC(=S)N1CCS(=O)(=O)O", "pIC50": 6.21}
{"molecule": "O=C1/C(=C/c2cn(-c3ccccc3)nc2-c2ccc(OCc3ccccc3F)cc2)SC(=S)N1CCS(=O)(=O)O", "pIC50": 6.06}
{"molecule": "O=C1/C(=C/c2cn(-c3ccccc3)nc2-c2ccc(OCc3ccccc3)cc2)SC(=S)N1CCS(=O)(=O)O", "pIC50": 5.82}
{"molecule": "O=C1/C(=C/c2cn(-c3ccccc3)nc2-c2ccc(OCc3ccccc3Cl)cc2)SC(=S)N1CCS(=O)(=O)O", "pIC50": 5.92}
{"molecule": "O=C1/C(=C/c2cn(-c3ccccc3)nc2-c2ccc(S(=O)(=O)N3CCCCC3)cc2)SC(=S)N1CCS(=O)(=O)O", "pIC50": 5.62}
